Literature values, collected in paper PMC7673724 (Science Advances, 2020).

System: Rubisco
Conditions: control used to normalize array signal (one unit of binding)

- Binding to Rubisco of the positive control peptide: known to bind to Rubisco
Sequence: TRSVLPANWRQELESLRN [control EPYC1 peptide]
